pIC50, pKi: −log10 of the molar value.
How the values were obtained:
[1] = molecular target: T1, Human immunodeficiency virus type 1 protease (Human immunodeficiency virus 1, UniProt Q72874); test: Compound was evaluated for its inhibitory activity against HIV-1 protease
[2] = molecular target: T1, Human immunodeficiency virus type 1 protease; test: Compound was evaluated for its binding affinity against HIV-1 protease
[3] = The half-life period was determined; assay type: ADME

NC(=O)[C@@H]1CCCN1P(=O)(O)C(Cc1ccccc1)NC(=O)C(F)(F)F (stereo not given in full)
pIC50 [1]: 3.92 | pKi [2]: 4.28 | half-life [3]: 300 min

NC(=O)[C@H](Cc1ccccc1)NP(=O)(O)C(Cc1ccccc1)NC(=O)C(F)(F)F (stereo not given in full)
pIC50 [1]: 3.98 | pKi [2]: 4.35 | half-life [3]: 1800 min

COP(=O)(C(Cc1ccccc1)NC(=O)C(F)(F)F)N1CCC[C@H]1C(N)=O (stereo not given in full)
pIC50 [1]: 3.99 | pKi [2]: 4.36

COP(=O)(N[C@@H](Cc1ccccc1)C(N)=O)C(Cc1ccccc1)NC(=O)C(F)(F)F (stereo not given in full)
pIC50 [1]: 3.74 | pKi [2]: 4.10

From ChEMBL document CHEMBL1152026, “Phosphonamidates and phosphonamidate esters as HIV-1 protease inhibitors” (Bioorg Med Chem Lett, 1991)
